In US8173592B1, “Method for a programmed controlled ovarian stimulation protocol” (Zentaris IVF GmbH, priority 1999, dated 2012):
Non-standard residues stand in square brackets, D forms with d. Residues, ends and D or L forms follow the SMILES beside them. dPhe(4-Cl) = N[C@H](Cc1ccc(Cl)cc1)C(=O)O; d2Nal = N[C@H](Cc1ccc2ccccc2c1)C(=O)O; dCit = NC(=O)NCCC[C@@H](N)C(=O)O; d3Pal = N[C@H](Cc1cccnc1)C(=O)O

Key:
[1] = system: women undergoing controlled ovarian stimulation; assay: Controlled ovarian stimulation (COS) cycles programmed by oral contraceptives, with Gonal-F stimulation and Cetrotide 0.25 mg daily, in patients; type: in vivo
Experimental: A total of 30 patients, 15 from each German study center was enrolled for one treatment cycle. In the pre-treatment cycle, each patient received monophasic oral contraceptive(OC) pills containing 30 μg Estradiol in combination with levonogastrel. […] Cetrotide® 0.25 mg was given daily from the evening of stimulation day (s-day) 5/morning of s-day 6 until the day before hCG administration. On the basis of the ultrasound scans performed on s-day 9/10(s-day 9/10), and a calculation of follicular growth of 2 mm per day, hCG was administered to trigger ovulation (when >2 follicle's≧18 mm) were visualized.
Safety end-points were indicated and severity of adverse events.

[2] = system: luteal regression / start of menses; conditions: 1 mg given in the luteal phase; previous use; cited from earlier work
[3] = last day of Cetrotide administration, 17 patients

## CC(=O)N[C@H](Cc1ccc2ccccc2c1)C(=O)N[C@H](Cc1ccc(Cl)cc1)C(=O)N[C@H](Cc1cccnc1)C(=O)N[C@@H](CO)C(=O)N[C@@H](Cc1ccc(O)cc1)C(=O)N[C@H](CCCNC(N)=O)C(=O)N[C@@H](CC(C)C)C(=O)N[C@@H](CCCNC(=N)N)C(=O)N1CCC[C@H]1C(=O)N[C@H](C)C(N)=O [Cetrotide, cetrorelix] (Ac-[d2Nal][dPhe(4-Cl)][d3Pal]SY[dCit]LRP[dA]-NH2)
[1]; 17 patients
  adverse events: no cases of OHSS nor adverse events
  cases of OHSS: no cases
  difference between predicted and actual day of OPU, average: 2 days
  mean number of embryos transferred: 2
  mean number of oocytes retrieved: 8.8
  patients receiving hCG who had ovum pick up and embryo transfer: All 17 women who received hCG had ovum pick up and embryo transfer
  pregnancy rate per attempt/cycle: 41%
[1]; conclusion
  efficacy in OC programmed cycles: appears to be effective
  tolerability in OC programmed cycles: well tolerated
[1]; [3]
  mean number of follicles with diameter 15-17 mm: 4.9
  mean number of follicles with diameter ≦14 mm: 2.7
  mean number of follicles with diameter ≧18 mm: 2.7
[1]; preliminary results from 17 patients, stimulation day 9/10, Cetrotide 0.25 mg daily
  mean number of follicles ≧18 mm on s-day 9/10: 2.2
[2]
  start of menses after administration (luteal regression obtained): 2 to 4 days
